Data taken from patent US9394298B2, “Pyrroloquinoline quinone tetraalkali salt and crystal thereof, methods for producing these, and composition” (Mitsubishi Gas Chemical Company, Inc., priority 2012, dated 2016).
Counter-ions that a name gives are not always drawn. Like-named read-outs stand apart in the source and are kept apart here.

Columns and labels:
Type in all cases: physicochemical
[1] = Test of the solubility; conditions: for Solubility Ratio: ratio to Comp. Ex. 1 (Na2PQQ = 1); for Solubility: room temperature of 23° C., calculated from absorbance at 260 nm
Description: 50 mg of each PQQ salt shown in Table 6 was added to 0.5 mL of water so as to become supersaturated. Here, in the case where a PQQ salt was completely dissolved in this concentration, the amount of water was reduced. Thereafter, an ultrasonic wave was applied on the solution at room temperature of 23° C. The solution was subjected to a centrifugal separator; and the supernatant was subjected to a UV measurement by diluting it using a phosphoric acid buffer (pH: 7.4, manufactured by Gibco Corp.) so that the absorbance at 260 nm became in the range of 0 to 1. The solubility was calculated from the absorption.

[2] = Test of the dissolution speed; conditions: 1 mg salt in 2 mL water; for Absorbance After 1 min / Absorbance After 30 min: absorbance at 450 nm, fully dissolved = 100
Description: 1 mg of each PQQ salt shown in Table 7 was added to an acryl-made absorbance measurement cell, and 2 mL of water was added thereto and the absorbance at 450 nm was measured.

[3] = Test of the reactivity with ascorbic acid; conditions: for State of the solution after adding ascorbic acid, after 2 hours / State of the solution after adding ascorbic acid, after 1 day: 1 g/L PQQ salt in water, 1 mL + 0.5 mL of 100 g/L ascorbic acid aqueous solution
Description: Each PQQ salt shown in Table 5 was dissolved in water so as to become 1 g/L. 0.5 mL of a 100 g/L ascorbic acid aqueous solution was added to 1 mL of the solution, and its states after 2 hours, after 1 day and after 2 days were observed.

[4] = Stability in alkalinity, from the liquid chromatography chart; conditions: solid obtained from alkaline solution
Description: PQQ was identified using the following apparatus.
Apparatus: a high performance liquid chromatography system, Lc-20A, manufactured by Shimadzu Corp.
Column: YMC-Pack ODS-Tms (5 μm), 150×4.6 mm I.D.
Measurement temperature: 40° C.
Detection: absorbance at 260 nm

Row | Compound | Solubility Ratio [1] | Solubility ([1]; water) | Absorbance After 1 min [2] | Absorbance After 30 min [2] | State of the solution after adding ascorbic acid, after 2 hours [3] | State of the solution after adding ascorbic acid, after 1 day [3] | State of the solution after adding ascorbic acid, after 2 hours ([3]; Trisodium Salt) | State of the solution after adding ascorbic acid, after 1 day ([3]; Trisodium Salt) | Solubility ([1]; thermodynamic from solid, water, read-out: Solubility) | Dissolution speed, in words [2] | Color change with ascorbic acid in a long-term observation [3] | Decomposed substances / stability in the alkalinity [4] | Solubility, in words ([1]; water, 23° C.)
1 | O=C([O-])c1cc(C(=O)[O-])c2c(n1)C(=O)C(=O)c1cc(C(=O)O)[nH]c1-2.[Na+].[Na+] [Comp. Ex. 1, PQQ Disodium Salt, reference compound] | 1 | 7.99 mmol/L | 41 | 48 | brown deposit | brown deposit |  |  |  |  |  |  | 
2 | O=C(O)c1cc(C(=O)O)c2c(n1)C(=O)C(=O)c1cc(C(=O)O)[nH]c1-2 [Comp. Ex. 2, PQQ Trisodium Salt, reference compound] | 3.8 | 30.4 mmol/L |  |  |  |  | brown deposit | brown deposit |  |  |  |  | 
3 | O=C(O)c1cc(C(=O)O)c2c(n1)C(=O)C(=O)c1cc(C(=O)O)[nH]c1-2 [Example 1, PQQ Tetrasodium Salt] | 58 |  | 88 | 92 | red solution | red solution |  |  | 463 mmol/L | higher dissolution speed than the PQQ disodium salt | hardly generated color change |  | 
4 | O=C(O)c1cc(C(=O)O)c2c(n1)C(=O)C(=O)c1cc(C(=O)O)[nH]c1-2.[Li].[Li].[Li].[Li] [Example 5, PQQ Tetralithium Salt] | 82 | 655 mmol/L |  |  | red solution | red solution |  |  |  |  |  | no decomposed substances and was stable even in the alkalinity | more easily dissolved than the PQQ tetrasodium salt
5 | O=C(O)c1cc(C(=O)O)c2c(n1)C(=O)C(=O)c1cc(C(=O)O)[nH]c1-2.[Li].[Li].[Na].[Na] [Example 6, PQQ Disodium Dilithium Salt] | 11 | 89 mmol/L |  |  | red solution | red solution |  |  |  |  |  | no decomposed substances and was stable even in the alkalinity | 
6 | O=C(O)c1cc(C(=O)O)c2c(n1)C(=O)C(=O)c1cc(C(=O)O)[nH]c1-2.[K].[K].[K].[K] [Example 7, PQQ tetrapotassium salt] | 10.5 | 84 mmol/L | 71 | 85 | red solution | red solution |  |  |  |  | hardly generated color change | no decomposed substances and was stable even in the alkalinity | 
